Assay results: the NIST ThermoML archive (doi:10.1016/j.jct.2015.02.011)
± gives the expanded uncertainty stated by the source.

Test: xn = mol fraction of the nth substance listed
Details: 100.7 kPa, Liquid; for speed of sound: Frequency=3 MHz, Sing-around technique in a fixed-path interferometer; for mass density: Vibrating tube method

CCCCCCn1cc[n+](C)c1.F[P-](F)(F)(F)(F)F [1-hexyl-3-methylimidazolium hexafluorophosphate] + C1CCOC1
Details | mass density [kg/m3] | speed of sound [m/s]
293.15 K, x1 = 0.1036 | 1001.33 ± 1.6 | 1328.7 ± 2.3
293.15 K, x1 = 0.2002 | 1074.85 ± 1.6 | 1349.2 ± 2.3
293.15 K, x1 = 0.2868 | 1123.69 ± 1.6 | 1366.6 ± 2.4
293.15 K, x1 = 0.4134 | 1175.92 ± 1.7 | 1385.4 ± 2.5
293.15 K, x1 = 0.5222 | 1209.22 ± 1.7 | 1398.2 ± 2.5
293.15 K, x1 = 0.6239 | 1233.91 ± 1.8 | 1408.8 ± 2.6
293.15 K, x1 = 0.6951 | 1248.83 ± 1.8 | 1414.7 ± 2.7
293.15 K, x1 = 0.7978 | 1267.15 ± 1.9 | 1423.7 ± 2.7
293.15 K, x1 = 0.8953 | 1282.62 ± 2 | 1430.4 ± 2.8
293.15 K, x1 = 1 | 1296.72 ± 2.1 | 1437.7 ± 2.9
298.15 K, x1 = 0.1036 | 996.523 ± 1.6 | 1308.8 ± 2.3
298.15 K, x1 = 0.2002 | 1070.1 ± 1.6 | 1330.9 ± 2.3
298.15 K, x1 = 0.2868 | 1119.03 ± 1.6 | 1348.8 ± 2.4
298.15 K, x1 = 0.4134 | 1171.43 ± 1.7 | 1370 ± 2.5
298.15 K, x1 = 0.5222 | 1204.92 ± 1.7 | 1383.3 ± 2.5
298.15 K, x1 = 0.6239 | 1229.78 ± 1.8 | 1394.6 ± 2.6
298.15 K, x1 = 0.6951 | 1244.72 ± 1.8 | 1400.1 ± 2.7
298.15 K, x1 = 0.7978 | 1263.02 ± 1.9 | 1409.8 ± 2.7
298.15 K, x1 = 0.8953 | 1278.55 ± 2 | 1417.1 ± 2.8
298.15 K, x1 = 1 | 1292.62 ± 2.1 | 1424.3 ± 2.9
303.15 K, x1 = 0.1036 | 991.33 ± 1.6 | 1287.5 ± 2.3
303.15 K, x1 = 0.2002 | 1065.16 ± 1.6 | 1311.7 ± 2.3
303.15 K, x1 = 0.2868 | 1114.11 ± 1.6 | 1331.2 ± 2.4
303.15 K, x1 = 0.4134 | 1166.92 ± 1.7 | 1352.9 ± 2.5
303.15 K, x1 = 0.5222 | 1200.49 ± 1.7 | 1367.7 ± 2.5
303.15 K, x1 = 0.6239 | 1225.49 ± 1.8 | 1379.7 ± 2.6
303.15 K, x1 = 0.6951 | 1240.35 ± 1.8 | 1386.4 ± 2.6
303.15 K, x1 = 0.7978 | 1258.87 ± 1.9 | 1395.8 ± 2.7
303.15 K, x1 = 0.8953 | 1274.54 ± 2 | 1403.8 ± 2.8
303.15 K, x1 = 1 | 1288.61 ± 2.1 | 1411.5 ± 2.9
308.15 K, x1 = 0.1036 | 986.423 ± 1.6 | 1267.3 ± 2.3
308.15 K, x1 = 0.2002 | 1060.21 ± 1.6 | 1293.6 ± 2.3
308.15 K, x1 = 0.2868 | 1109.47 ± 1.6 | 1314.3 ± 2.4
308.15 K, x1 = 0.4134 | 1162.51 ± 1.7 | 1338.2 ± 2.5
308.15 K, x1 = 0.5222 | 1196.52 ± 1.7 | 1353.7 ± 2.5
308.15 K, x1 = 0.6239 | 1221.41 ± 1.8 | 1365.4 ± 2.6
308.15 K, x1 = 0.6951 | 1236.28 ± 1.8 | 1372.3 ± 2.6
308.15 K, x1 = 0.7978 | 1255.02 ± 1.9 | 1382.1 ± 2.7
308.15 K, x1 = 0.8953 | 1270.73 ± 2 | 1390.9 ± 2.8
308.15 K, x1 = 1 | 1284.72 ± 2.1 | 1399 ± 2.9
313.15 K, x1 = 0.1036 | 981.583 ± 1.6 | 1247 ± 2.3
313.15 K, x1 = 0.2002 | 1055.56 ± 1.6 | 1275.7 ± 2.3
313.15 K, x1 = 0.2868 | 1105.02 ± 1.6 | 1298 ± 2.4
313.15 K, x1 = 0.4134 | 1158.19 ± 1.7 | 1322.6 ± 2.5
313.15 K, x1 = 0.5222 | 1192.16 ± 1.7 | 1339.2 ± 2.5
313.15 K, x1 = 0.6239 | 1217.23 ± 1.8 | 1351.9 ± 2.6
313.15 K, x1 = 0.6951 | 1232.35 ± 1.8 | 1358.4 ± 2.6
313.15 K, x1 = 0.7978 | 1251.08 ± 1.9 | 1369.7 ± 2.7
313.15 K, x1 = 0.8953 | 1266.85 ± 2 | 1379.6 ± 2.8
313.15 K, x1 = 1 | 1280.82 ± 2.1 | 1386.9 ± 2.9
318.15 K, x1 = 0.1036 | 976.176 ± 1.6 | 1226.8 ± 2.3
318.15 K, x1 = 0.2002 | 1050.65 ± 1.6 | 1257.8 ± 2.3
318.15 K, x1 = 0.2868 | 1100.21 ± 1.6 | 1281.7 ± 2.4
318.15 K, x1 = 0.4134 | 1153.59 ± 1.7 | 1307.3 ± 2.5
318.15 K, x1 = 0.5222 | 1187.55 ± 1.7 | 1324.1 ± 2.5
318.15 K, x1 = 0.6239 | 1212.63 ± 1.8 | 1337.8 ± 2.6
318.15 K, x1 = 0.6951 | 1227.99 ± 1.8 | 1345.7 ± 2.6
318.15 K, x1 = 0.7978 | 1246.87 ± 1.9 | 1357.4 ± 2.7
318.15 K, x1 = 0.8953 | 1262.74 ± 2 | 1367.7 ± 2.8
318.15 K, x1 = 1 | 1276.37 ± 2.1 | 1375 ± 2.9
323.15 K, x1 = 0.1036 | 971.026 ± 1.7 | 1207.5 ± 2.3
323.15 K, x1 = 0.2002 | 1045.83 ± 1.6 | 1240.6 ± 2.3
323.15 K, x1 = 0.2868 | 1095.6 ± 1.6 | 1265.7 ± 2.4
323.15 K, x1 = 0.4134 | 1148.94 ± 1.7 | 1291.2 ± 2.5
323.15 K, x1 = 0.5222 | 1183.5 ± 1.7 | 1309.2 ± 2.5
323.15 K, x1 = 0.6239 | 1208.58 ± 1.8 | 1323.8 ± 2.6
323.15 K, x1 = 0.6951 | 1224.2 ± 1.8 | 1332.8 ± 2.6
323.15 K, x1 = 0.7978 | 1243.02 ± 1.9 | 1345.3 ± 2.7
323.15 K, x1 = 0.8953 | 1258.69 ± 2 | 1355.6 ± 2.8
323.15 K, x1 = 1 | 1272.45 ± 2.1 | 1363.3 ± 2.9
